The results in this text go back to patent publication US20100292224A1, “ISOTHIAZOLIDINE 1,1-DIOXIDE AND TETRAHYDRO-2H-1,2-THIAZINE 1,1-DIOXIDE DERIVATIVES AS P2X7 MODULATORS” (GLAXO GROUP LIMITED, priority 2007, published 2010).

Each structure is given as a SMILES string.

For this assay, the target named is T1, human recombinant P2X7 receptors (Homo sapiens, UniProt Q99572).
T1 construct: expressed in transfected cells
T1 sequence (Q99572 1-595): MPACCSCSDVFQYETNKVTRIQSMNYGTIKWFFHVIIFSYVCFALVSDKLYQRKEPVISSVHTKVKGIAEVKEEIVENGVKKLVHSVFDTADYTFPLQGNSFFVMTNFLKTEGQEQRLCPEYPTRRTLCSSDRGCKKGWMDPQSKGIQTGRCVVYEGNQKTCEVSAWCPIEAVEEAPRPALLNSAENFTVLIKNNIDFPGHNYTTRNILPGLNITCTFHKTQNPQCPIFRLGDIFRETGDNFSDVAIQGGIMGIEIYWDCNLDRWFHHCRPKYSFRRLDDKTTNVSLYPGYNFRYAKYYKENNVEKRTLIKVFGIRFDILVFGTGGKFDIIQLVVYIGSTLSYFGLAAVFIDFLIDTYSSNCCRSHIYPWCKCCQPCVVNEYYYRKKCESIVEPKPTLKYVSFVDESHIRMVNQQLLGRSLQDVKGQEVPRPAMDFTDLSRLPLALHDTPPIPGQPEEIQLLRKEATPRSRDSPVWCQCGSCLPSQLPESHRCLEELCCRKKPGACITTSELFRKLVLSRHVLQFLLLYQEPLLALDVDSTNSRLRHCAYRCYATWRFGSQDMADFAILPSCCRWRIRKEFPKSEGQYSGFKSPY
In words: Ethidium Accumulation Assay. In kind it is cell-based. The following applies: HEK293 cells stably expressing human recombinant P2X7; blocking 1 mM ATP response; typically mean of more than one measurement; 'about' values; read-out: pIC50 in the Ethidium Accumulation Assay or a slightly modified version thereof (converted). As to the method: Studies were performed using NaCl assay buffer of the following composition: 140 mM NaCl, 10 mM HEPES [4-(2-hydroxyethyl)-1-piperazine-1-ethanesulfonic acid], 5 mM N-methyl-D-glucamine, 5.6 mM KCl, 10 mM D-glucose, 0.5 mM CaCl2(pH 7.4).
Human Embryonic Kidney (HEK) 293 cells, stably expressing human recombinant P2X7 receptors, were grown in poly-D-lysine pretreated 96 well plates for 18-24 hours. (The cloning of the human P2X7 receptor is described in U.S. Pat. No. 6,133,434, e.g. see Example 3 therein). The cells were washed twice with 350 μl of the assay buffer, before addition of 50 μl of the assay buffer containing the putative P2X7 receptor antagonist compound. (A small amount of dimethyl sulfoxide, for initially dissolving the compound, is optionally used and present in this 50 μl test compound sample.) The cells were then incubated at room temperature (19-21° C.) for 30 min before addition of ATP and ethidium (100 μM final assay concentration). The ATP concentration was chosen to be close to the EC80 for the receptor type and was 1 mM for studies on the human P2X7 receptor. Incubations were continued for 8 or 16 min and were terminated by addition of 25 μl of 1.3M sucrose containing 4 mM of the P2X7 receptor antagonist Reactive Black 5 (Aldrich). Cellular accumulation of ethidium was determined by measuring fluorescence (excitation wavelength of 530 nm and emission wavelength of 620 nm) from below the plate with a Can berra Packard Fluorocount (14 Station Road, Pangbourne, Reading, Berkshire RG8 7AN, United Kingdom) or a FlexStation II 384 from Molecular Molecular Devices (660-665 Eskdale Road, Wokingham, Berkshire RG41 5TS, United Kingdom). Antagonist plC50 values for blocking ATP responses were determined using iterative curve fitting techniques.
As to `CN1C(C(=O)NCc2ccc(F)cc2Cl)CCS1(=O)=O` (stereo not shown) [Example 3, N-[(2-chloro-4-fluorophenyl)methyl]-2-methyl-3-isothiazolidinecarboxamide 1,1-dioxide], the IC50 was 0.01 to 0.316 µM.
With `CC(C)CN1C(C(=O)NCc2ccc(Cl)cc2Cl)CCS1(=O)=O` (stereo not shown) [Example 4, N-[(2,4-dichlorophenyl)methyl]-2-(2-methylpropyl)-3-isothiazolidinecarboxamide 1,1-dioxide], the IC50 was 0.01 to 0.316 µM.
As for `CC(C)CN1C(C(=O)NCc2ccccc2Cl)CCS1(=O)=O` (stereo not shown) [Example 11, N-[(2-chlorophenyl)methyl]-2-(2-methylpropyl)-3-isothiazolidinecarboxamide 1,1-dioxide], the figure is 3.98 to 15.8 µM; as for `CN1C(C(=O)NCc2ccc(Cl)cc2Cl)CCS1(=O)=O` (stereo not shown) [Example 13, N-[(2,4-dichlorophenyl)methyl]-2-methyl-3-isothiazolidinecarboxamide 1,1-dioxide], 0.01 to 0.316 µM; as for `CCN1C(C(=O)NCc2ccc(F)cc2Cl)CCS1(=O)=O` (stereo not shown) [Example 15, N-[(2-chloro-4-fluorophenyl)methyl]-2-ethyl-3-isothiazolidinecarboxamide 1,1-dioxide], 0.01 to 0.316 µM.
With `Cc1c(Cl)cccc1CNC(=O)C1CCS(=O)(=O)N1C` (stereo not shown) [Example 17, N-[(3-chloro-2-methylphenyl)methyl]-2-methyl-3-isothiazolidinecarboxamide 1,1-dioxide], the IC50 is 0.01 to 0.316 µM.
In the case of `Cc1c(Cl)cccc1CNC(=O)C1CCS(=O)(=O)N1C(C)C` (stereo not shown) [Example 18, N-[(3-chloro-2-methylphenyl)methyl]-2-(1-methylethyl)-3-isothiazolidinecarboxamide 1,1-dioxide], the IC50 is 0.01 to 0.316 µM.
Consider `CCN1C(C(=O)NCc2cccc(Cl)c2C)CCS1(=O)=O` (stereo not shown) [Example 20, N-[(3-chloro-2-methylphenyl)methyl]-2-ethyl-3-isothiazolidinecarboxamide 1,1-dioxide], for which the IC50 was 0.01 to 0.316 µM.
The figure for `CCN1C(C(=O)NCc2ccc(F)cc2C(F)(F)F)CCS1(=O)=O` (stereo not shown) [Example 21, 2-ethyl-N-{[4-fluoro-2-(trifluoromethyl)phenyl]methyl}-3-isothiazolidinecarboxamide 1,1-dioxide] is 0.01 to 0.316 µM; for `CC(C)N1C(C(=O)NCc2ccc(F)cc2Cl)CCS1(=O)=O` (stereo not shown) [Example 22, N-[(2-chloro-4-fluorophenyl)methyl]-2-(1-methylethyl)-3-isothiazolidinecarboxamide 1,1-dioxide] it is 0.01 to 0.316 µM; for `CCN1C(C(=O)NCc2ccc(Cl)cc2Cl)CCS1(=O)=O` (stereo not shown) [Example 24, N-[(2,4-dichlorophenyl)methyl]-2-ethyl-3-isothiazolidinecarboxamide 1,1-dioxide] it is 0.01 to 0.316 µM.
As to `CC(C)N1C(C(=O)NCc2ccc(Cl)cc2Cl)CCS1(=O)=O` (stereo not shown) [Example 27, N-[(2,4-dichlorophenyl)methyl]-2-(1-methylethyl)-3-isothiazolidinecarboxamide 1,1-dioxide], the IC50 is 0.01 to 0.316 µM.
Regarding `CN1C(C(=O)NCc2cccc(C(F)(F)F)c2Cl)CCS1(=O)=O` (stereo not shown) [Example 29, N-{[2-chloro-3-(trifluoromethyl)phenyl]methyl}-2-methyl-3-isothiazolidinecarboxamide 1,1-dioxide], the IC50 was 0.01 to 0.316 µM.
Turning to `CN1C(C(=O)NCc2ccc(F)c(F)c2Cl)CCS1(=O)=O` (stereo not shown) [Example 30, N-[(2-chloro-3,4-difluorophenyl)methyl]-2-methyl-3-isothiazolidinecarboxamide 1,1-dioxide], the IC50 is 0.01 to 0.316 µM.
Turning to `CCN1C(C(=O)NCc2ccc(F)c(F)c2Cl)CCS1(=O)=O` (stereo not shown) [Example 31, N-[(2-chloro-3,4-difluorophenyl)methyl]-2-ethyl-3-isothiazolidinecarboxamide 1,1-dioxide], the IC50 was 0.01 to 0.316 µM.
Turning to `CCN1C(C(=O)NCc2cccc(C(F)(F)F)c2Cl)CCS1(=O)=O` (stereo not shown) [Example 32, N-{[2-chloro-3-(trifluoromethyl)phenyl]methyl}-2-ethyl-3-isothiazolidinecarboxamide 1,1-dioxide], the IC50 is 0.01 to 0.316 µM.
As for `CN1C(C(=O)NCc2ccc(Cl)cc2Cl)CCCS1(=O)=O` (stereo not shown) [Example 35, N-[(2,4-dichlorophenyl)methyl]-2-methyltetrahydro-2H-1,2-thiazine-3-carboxamide 1,1-dioxide], the figure is 0.01 to 0.316 µM; as for `CCN1C(C(=O)NCc2ccc(Cl)cc2Cl)CCCS1(=O)=O` (stereo not shown) [Example 36, N-[(2,4-dichlorophenyl)methyl]-2-ethyltetrahydro-2H-1,2-thiazine-3-carboxamide 1,1-dioxide], 0.01 to 0.316 µM; as for `CCN1C(C(=O)NCc2ccccc2Cl)CCCS1(=O)=O` (stereo not shown) [Example 39, N-[(2-chlorophenyl)methyl]-2-ethyltetrahydro-2H-1,2-thiazine-3-carboxamide 1,1-dioxide], 3.98 to 15.8 µM.
Take `Cc1cccc(Cl)c1CNC(=O)C1CCCS(=O)(=O)N1C(C)C` (stereo not shown) [Example 41, N-[(2-chloro-6-methylphenyl)methyl]-2-(1-methylethyl)tetrahydro-2H-1,2-thiazine-3-carboxamide 1,1-dioxide]: the IC50 is 3.98 to 15.8 µM.
Take `CC(C)N1C(C(=O)NCc2ccc(F)cc2Cl)CCCS1(=O)=O` (stereo not shown) [Example 43, N-[(2-chloro-4-fluorophenyl)methyl]-2-(1-methylethyl)tetrahydro-2H-1,2-thiazine-3-carboxamide 1,1-dioxide]: the IC50 is 3.98 to 15.8 µM.
For `CC(C)N1C(C(=O)NCc2ccccc2Cl)CCCS1(=O)=O` (stereo not shown) [Example 44, N-[(2-chlorophenyl)methyl]-2-(1-methylethyl)tetrahydro-2H-1,2-thiazine-3-carboxamide 1,1-dioxide], the IC50 is 3.98 to 15.8 µM.
On to `CC(C)N1C(C(=O)NCc2ccc(F)c(F)c2F)CCCS1(=O)=O` (stereo not shown) [Example 46, 2-(1-methylethyl)-N-[(2,3,4-trifluorophenyl)methyl]tetrahydro-2H-1,2-thiazine-3-carboxamide 1,1-dioxide], for which the IC50 is 3.98 to 15.8 µM.
For `CC(C)N1C(C(=O)NCc2ccc(F)cc2C(F)(F)F)CCCS1(=O)=O` (stereo not shown) [Example 47, N-{[4-fluoro-2-(trifluoromethyl)phenyl]methyl}-2-(1-methylethyl)tetrahydro-2H-1,2-thiazine-3-carboxamide 1,1-dioxide], the IC50 was 3.98 to 15.8 µM.
In the case of `CN1C(C(=O)NCc2ccc(F)cc2C(F)(F)F)CCCS1(=O)=O` (stereo not shown) [Example 48, N-{[4-fluoro-2-(trifluoromethyl)phenyl]methyl}-2-methyltetrahydro-2H-1,2-thiazine-3-carboxamide 1,1-dioxide], the IC50 was 3.98 to 15.8 µM.
